Broadly, the pest or weed control is the degree to which the test organism was suppressed or injured, in per cent. A high value points to strong suppression.

Experimental findings from patent US10130096B2, “Method for protecting useful plants or plant propagation material” (SYNGENTA PARTICIPATIONS AG, priority 2011, dated 2018) are described below.

In experiment [1] the test system is Monographella nivalis (Microdochium nivale). The experiment can be described thus: Monographella nivalis liquid culture growth inhibition. It is filed as cell-based. The conditions noted are these: photometric, 4-5 days after application, read-out: control on Monographella nivalis. As to the method: Conidia of the fungus from cryogenic storage are directly mixed into nutrient broth (PDB potato dextrose broth). After placing a (DMSO) solution of test compound into a microtiter plate (96-well format), the nutrient broth containing the fungal spores is added. The test plates are incubated at 24° C. and the inhibition of growth is determined photometrically 4-5 days after application.

The test system of experiment [2] is Mycosphaerella arachidis (Cercospora arachidicola). Put plainly: Mycosphaerella arachidis liquid culture growth inhibition. It is filed as cell-based. The conditions noted are these: photometric, 4-5 days after application, read-out: control on Mycosphaerella arachidis. As to the method:
(§1) Conidia of the fungus from cryogenic storage are directly mixed into nutrient broth (PDB potato dextrose broth). After placing a (DMSO) solution of test compound into a microtiter plate (96-well format), the nutrient broth containing the fungal spores is added.

Another experiment relates to Fusarium culmorum. Put plainly: Fusarium culmorum liquid culture growth inhibition. It is filed as cell-based. The conditions noted are these: photometric, 3-4 days after application, read-out: control on Fusarium culmorum. On the procedure: Conidia of the fungus from cryogenic storage are directly mixed into nutrient broth (PDB potato dextrose broth). After placing a (DMSO) solution of test compound into a microtiter plate (96-well format), the nutrient broth containing the fungal spores is added. The test plates are incubated at 24° C. and the inhibition of growth is determined photometrically 3-4 days after application.

Another experiment has as its system Alternaria solani. The experiment can be described thus: Alternaria solani on tomato plants. The format is in vivo. Conditions: 4-week old tomato plants cv. Roter Gnom, spray, inoculated two days after application. As to the method:
4-week old tomato plants cv. Roter Gnom are sprayed in a spray chamber with the formulated test compound diluted in water. The test plants are inoculated by spraying them with a spore suspension two days after application. The inoculated test plants are incubated at 22/18° C. (day/night) and 95% rh in a greenhouse and the percentage leaf area covered by disease is assessed when an appropriate level of disease appears on untreated check plants (5-7 days after application).

Experiment [3] has as its system Botryotinia fuckeliana (Botrytis cinerea). Put plainly: Botryotinia fuckeliana liquid culture growth inhibition. It is filed as cell-based. Conditions: photometric, 3-4 days after application, read-out: control on Botryotinia fuckeliana. As to the method: Conidia of the fungus from cryogenic storage are directly mixed into nutrient broth (Vogels broth). After placing a (DMSO) solution of test compound into a microtiter plate (96-well format), the nutrient broth containing the fungal spores is added.

In experiment [4] the test system is Pythium ultimum. The experiment can be described thus: Pythium ultimum liquid culture growth inhibition. It is filed as cell-based. The conditions noted are these: Globisporangium ultimum, photometric, 2-3 days after application, read-out: control on Pythium ultimum. As to the method: Mycelia fragments and oospores of a newly grown liquid culture of the fungus are directly mixed into nutrient broth (PDB potato dextrose broth). After placing a (DMSO) solution of test compound into a microtiter plate (96-well format), the nutrient broth containing the fungal mycelia/spore mixture is added.

For experiment [5], the system named is Glomerella lagenarium (Colletotrichum lagenarium). Put plainly: Glomerella lagenarium liquid culture growth inhibition. The format is cell-based. The conditions noted are these: Colletotrichum orbiculare, photometric, 3-4 days after application, read-out: control on Glomerella lagenarium. As to the method: as §1
The subject of experiment [6] is Pythium ultimum. The experiment can be described thus: Example B-5: seed treatment against Pythium ultimum on cotton. It is filed as in vivo. Conditions: Globisporangium ultimum, rate of 200 g/100 kg seeds, infested soil, number of germinated, healthy plants. On the procedure: The trial is kept for 1 week in a growth room at 20° C. and darkness. After this period the trial is transferred to a greenhouse where a temperature of 21° C. and a 14 h light period is provided until the trial is finished. The following assessments are made: number of germinated, healthy plants. Each number is determined for 150 seeds per treatment (3 replicates a 50 seeds).

The test system of experiment [7] is Thanatephorus cucumeris (Rhizoctonia solani). The experiment can be described thus: Thanatephorus cucumeris liquid culture growth inhibition. Conditions: photometric, 3-4 days after application, read-out: control on Thanatephorus cucumeris. It is filed as cell-based. On the procedure:
Mycelia fragments of a newly grown liquid culture of the fungus are directly mixed into nutrient broth (PDB potato dextrose broth). After placing a (DMSO) solution of the test compounds into a microtiter plate (96-well format), the nutrient broth containing the fungal material is added. The test plates are incubated at 24° C. and the inhibition of growth is determined photometrically 3-4 days after application.

Turning to `NCC(OB1OCc2cc(Cl)ccc21)c1ccccc1` (stereo not shown) [Compound 3, 2-(5-Chloro-3H-benzo[c][1,2]oxaborol-1-yloxy)-2-phenyl-ethylamine], the inhibition of growth at 200 ppm (in experiment [1]; in experiment [2]; in the experiment on Fusarium culmorum; in experiment [3]; with Pythium ultimum [4]; in experiment [5]) was ≥ 80% each time. The pest or weed control at 60 ppm in the experiment with Alternaria solani was ≥ 60%.
As to `NCCCCOB1OCc2cc(Cl)ccc21` [Compound 10, 4-(5-Chloro-3H-benzo[c][1,2]oxaborol-1-yloxy)-butylamine], the inhibition of growth at 200 ppm (in experiment [1]; in [2]; in the experiment with Fusarium culmorum; in [3]; with Pythium ultimum [4]; in [5]) was ≥ 80% in each case. Further, the inhibition of growth at 200 ppm in experiment [7] was ≥ 80%. The pest or weed control at 200 g/100 kg seeds in the experiment on Pythium ultimum [6] is ≥ 50%.
In the case of `OB1OCc2ccccc21` [Compound 11, 3H-Benzo[c][1,2]oxaborol-1-ol], the inhibition of growth at 200 ppm (in experiment [2]; in the experiment with Fusarium culmorum; in experiment [3]; in the experiment with Pythium ultimum [4]; in experiment [5]) was ≥ 80% throughout. In addition, the pest or weed control at 200 g/100 kg seeds in the experiment on Pythium ultimum [6] is ≥ 50%.
Turning to `NCCCCOB1OCc2cc(F)ccc21` [Compound 13, 4-(5-Fluoro-3H-benzo[c][1,2]oxaborol-1-yloxy)-butylamine], the inhibition of growth at 200 ppm (in experiment [1]; in [2]; in the experiment with Fusarium culmorum; in experiment [3]; in the experiment with Pythium ultimum [4]; in experiment [5]) was ≥ 80% each time. Also, the inhibition of growth at 200 ppm in [7] was ≥ 80%. In addition, the pest or weed control at 200 g/100 kg seeds with Pythium ultimum [6] was ≥ 50%.
As for `OB1OCc2cc3ccccc3cc21` [Compound 15, 3H-2-Oxa-1-bora-cyclopenta[b]naphthalen-1-ol], the inhibition of growth at 200 ppm (in experiment [1]; in experiment [2]; with Fusarium culmorum; in experiment [3]; in the experiment with Pythium ultimum [4]; in experiment [5]) was ≥ 80% throughout. Further, the pest or weed control at 60 ppm in the experiment with Alternaria solani was ≥ 60%.
`NCCOB1OCc2c1ccc1ccccc21` [Compound 18, 2-(1H-2-Oxa-3-bora-cyclopenta[a]naphthalen-3-yloxy)-ethylamine]: the inhibition of growth at 200 ppm (in experiment [1]; in [2]; in the experiment on Fusarium culmorum; in the experiment with Pythium ultimum [4]; in experiment [5]) was ≥ 80% throughout. Moreover, the pest or weed control at 60 ppm in the experiment with Alternaria solani was ≥ 60%.
On to `N[C@H](COB1OCc2cc(Cl)ccc21)Cc1ccccc1` [Compound 20, (S)-1-Benzyl-2-(5-chloro-3H-benzo[c][1,2]oxaborol-1-yloxy)-ethylamine], for which the inhibition of growth at 200 ppm (in experiment [1]; in [2]; in the experiment with Fusarium culmorum; in experiment [3]; in the experiment on Pythium ultimum [4]; in experiment [5]) was ≥ 80% each time. The inhibition of growth at 200 ppm in [7] was ≥ 80%.
For `CC(C)(N)COB1OCc2cc(Cl)ccc21` [Compound 21, 2-(5-Chloro-3H-benzo[c][1,2]oxaborol-1-yloxy)-1,1-dimethyl-ethylamine], the inhibition of growth at 200 ppm (in [1]; in experiment [2]; in the experiment with Fusarium culmorum; in experiment [3]; with Pythium ultimum [4]; in [5]) was ≥ 80% throughout. For the same molecule, in experiment [7], the inhibition of growth at 200 ppm is ≥ 80%.
Regarding `Clc1ccc2c(c1)COB2Oc1cccc2cccnc12` [Compound 22, 8-(5-Chloro-3H-benzo[c][1,2]oxaborol-1-yloxy)-quinoline], the inhibition of growth at 200 ppm (in experiment [1]; in [2]; with Fusarium culmorum; in experiment [3]; in the experiment with Pythium ultimum [4]; in experiment [5]) was ≥ 80% each time. For the same molecule, the inhibition of growth at 200 ppm in [7] is ≥ 80%.
As to `Clc1ccc2c(c1)COB2OC[C@@H]1CCCN1` [Compound 24, (S)-2-(5-Chloro-3H-benzo[c][1,2]oxaborol-1-yloxymethyl)-pyrrolidine], the inhibition of growth at 200 ppm (in experiment [1]; in experiment [2]; with Fusarium culmorum; in experiment [3]; in the experiment with Pythium ultimum [4]; in [5]) was ≥ 80% in each case. Further, the inhibition of growth at 200 ppm in experiment [7] was ≥ 80%.
For `CCC(CN)OB1OCc2cc(Cl)ccc21` (stereo not shown) [Compound 26, 2-(5-Chloro-3H-benzo[c][1,2]oxaborol-1-yloxy)-butylamine], the inhibition of growth at 200 ppm (in [1]; in [2]; in the experiment on Fusarium culmorum; in [3]; with Pythium ultimum [4]; in [5]) was ≥ 80% each time. The inhibition of growth at 200 ppm in [7] is ≥ 80%. Also, the pest or weed control at 200 g/100 kg seeds in the experiment with Pythium ultimum [6] is ≥ 50%.
Regarding `CC(CN)OB1OCc2cc(Cl)ccc21` (stereo not shown) [Compound 27, 2-(5-Chloro-3H-benzo[c][1,2]oxaborol-1-yloxy)-propylamine], the inhibition of growth at 200 ppm (in [1]; in [2]; in the experiment on Fusarium culmorum; in [3]; in the experiment on Pythium ultimum [4]; in [5]) was ≥ 80% each time. Besides, the inhibition of growth at 200 ppm in experiment [7] is ≥ 80%. Also, the pest or weed control at 60 ppm with Alternaria solani is ≥ 60%.
As for `CC(N)COB1OCc2cc(Cl)ccc21` (stereo not shown) [Compound 28, 2-(5-Chloro-3H-benzo[c][1,2]oxaborol-1-yloxy)-1-methyl-ethylamine], the inhibition of growth at 200 ppm (in [1]; in experiment [2]; in the experiment with Fusarium culmorum; in experiment [3]; in the experiment with Pythium ultimum [4]; in experiment [5]) was ≥ 80% throughout. Besides, the inhibition of growth at 200 ppm in experiment [7] was ≥ 80%. Further, the pest or weed control at 60 ppm with Alternaria solani was ≥ 60%.
For `CCC(N)COB1OCc2cc(F)ccc21` (stereo not shown) [Compound 30, 1-(5-Fluoro-3H-benzo[c][1,2]oxaborol-1-yloxymethyl)-propylamine], the inhibition of growth at 200 ppm (in experiment [1]; in experiment [2]; with Fusarium culmorum; in experiment [3]; in the experiment with Pythium ultimum [4]; in [5]) was ≥ 80% in each case. Also, the inhibition of growth at 200 ppm in [7] is ≥ 80%. For the same molecule, the pest or weed control at 200 g/100 kg seeds in the experiment on Pythium ultimum [6] is ≥ 50%.
`NCCOB1OCc2cc(Cl)ccc21` [Compound 36, 2-(5-Chloro-3H-benzo[c][1,2]oxaborol-1-yloxy)-ethylamine]: the inhibition of growth at 200 ppm (in [1]; in experiment [2]; with Fusarium culmorum; in [3]; in the experiment on Pythium ultimum [4]; in experiment [5]) was ≥ 80% each time. Also, the inhibition of growth at 200 ppm in experiment [7] is ≥ 80%.
